These results are taken from US20230357179A1, “RAF KINASE INHIBITORS AND METHODS OF USE THEREOF” (Deciphera Pharmaceuticals, LLC, priority 2021, published 2023).

One experiment deals with T1, B-Raf kinase (Homo sapiens, UniProt P15056).
T1 construct: GST (N); purchased Sigma
The experiment in a line: Biochemical assay for B-Raf.1 (coupled pyruvate kinase/lactate dehydrogenase). As to conditions: read-out: BRAF.1 IC50. In short, it runs like this:
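NADH oxidation followed at 340 nm in a pyruvate kinase/lactate dehydrogenase-coupled assay with 0.13 nM B-Raf, 30.1 nM MEK substrate, 1 mM ATP, pH 7.5 Tris buffer, 1% DMSO. Monitored 6 h at 30 °C; rate taken from 4–5 h. IC50 from four-parameter sigmoidal fit.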

The target of a further experiment is T2, C-Raf kinase (Homo sapiens, UniProt P04049, Y340D/Y341D).
T2 construct: Y340D,; GST (N); purchased Sigma
T2 sequence (P04049 307-648 Y340D/Y341D): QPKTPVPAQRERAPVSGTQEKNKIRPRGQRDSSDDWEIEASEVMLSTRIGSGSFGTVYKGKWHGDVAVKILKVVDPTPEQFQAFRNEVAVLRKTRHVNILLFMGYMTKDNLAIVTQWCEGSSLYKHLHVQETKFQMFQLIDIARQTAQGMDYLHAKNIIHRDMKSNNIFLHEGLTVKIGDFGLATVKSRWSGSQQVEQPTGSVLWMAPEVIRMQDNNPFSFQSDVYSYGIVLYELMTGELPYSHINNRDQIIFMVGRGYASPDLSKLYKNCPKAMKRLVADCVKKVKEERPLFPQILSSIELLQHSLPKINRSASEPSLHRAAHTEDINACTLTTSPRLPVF
The experiment in a line: Biochemical assay for C-Raf.1 (coupled pyruvate kinase/lactate dehydrogenase). As to conditions: read-out: CRAF.1 IC50. A digest of the protocol: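 C-Raf (0.43 nM) with MEK 30.1 nM and 1 mM ATP in Tris pH 7.5/MgCl2 buffer, activity coupled via PK/LDH to NADH oxidation (A340), 6 h at 30° C. Rates from 4–5 h window converted to % inhibition versus controls; IC50 by four-parameter fit, 1% DMSO.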

In a further experiment the target is T3, A-Raf kinase (Homo sapiens, UniProt P10398, Y301D/Y302D).
T3 construct: purchased Sigma
T3 sequence (P10398 with tags, fused parts or gaps Y301D/Y302D): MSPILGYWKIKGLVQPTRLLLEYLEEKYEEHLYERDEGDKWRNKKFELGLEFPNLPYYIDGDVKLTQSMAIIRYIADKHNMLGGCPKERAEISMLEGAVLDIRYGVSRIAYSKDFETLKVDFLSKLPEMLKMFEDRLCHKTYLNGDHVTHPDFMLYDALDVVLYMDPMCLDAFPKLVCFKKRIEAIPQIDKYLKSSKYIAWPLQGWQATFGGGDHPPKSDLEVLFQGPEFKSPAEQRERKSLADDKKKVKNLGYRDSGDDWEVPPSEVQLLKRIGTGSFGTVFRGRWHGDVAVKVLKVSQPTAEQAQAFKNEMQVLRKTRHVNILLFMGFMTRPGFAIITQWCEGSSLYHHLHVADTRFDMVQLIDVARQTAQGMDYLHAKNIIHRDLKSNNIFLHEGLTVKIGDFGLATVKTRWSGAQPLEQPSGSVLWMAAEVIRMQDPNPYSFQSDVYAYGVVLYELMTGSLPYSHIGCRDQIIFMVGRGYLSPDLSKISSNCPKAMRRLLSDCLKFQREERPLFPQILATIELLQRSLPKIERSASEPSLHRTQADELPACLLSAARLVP
The experiment can be described thus: Biochemical assay for A-Raf.1 (coupled pyruvate kinase/lactate dehydrogenase). As to conditions: read-out: ARAF.1 IC50. In short, it runs like this:
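A-Raf (5.55 nM) phosphorylating 30.1 nM MEK with 1 mM ATP was monitored by pyruvate kinase/lactate dehydrogenase-coupled NADH oxidation at 340 nm for 6 h at 30° C, in pH 7.5 Tris buffer with 15 mM MgCl2, 1% DMSO. Rates from 4–5 h gave percent inhibition; IC50 by four-parameter fit.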

A further experiment relates to WM3928 cells. The experiment can be described thus: WM3928 cell proliferation assay (2), resazurin, 384-well. It is filed as cell-based. The following applies: inhibition of cell proliferation, 67-72 hours. The protocol:
WM3928 Cell Proliferation Assay (2)
WM3928 cells (#WM3928-01-0001) are obtained from Rockland Immunochemicals Inc (Gilbertsville, PA). Briefly, cells were grown in MCDB 153 medium (Sigma, #M7403, St. Louis, MO) supplemented with 20% Leibovitz's L-15 (ThermoFisher #11415-064, Waltham, MA), 2% heat inactivated fetal bovine serum (ThermoFisher, #A3840001, Waltham, MA), 5 μg/mL Insulin (Bovine Pancreas) (Sigma, #I0516, St. Louis, MO), 1.68 mM Calcium Chloride (Sigma, #C-34006, St. Louis, MO) and 1% Penicillin/Streptomycin/L-Glutamine (ThermoFisher #10378016, Waltham, MA) at 37° C., 5% CO2, and 95% humidity. Cells are expanded until reaching 70-95% confluency at which point they are sub-cultured or harvested for assay use. Using the Beckman Coulter Echo 650, a serial dilution of test compound is dispensed into a 384-well black clear bottom plate in triplicate. Seven hundred fifty cells are added per well in 50 μL complete growth medium in the 384-well plate. Plates are incubated for 67-72 hours at 37° C., 5% CO2, and 95% humidity. At the end of the incubation, 10 μL of a 440 μM solution of resazurin (Sigma, #199303, St. Louis, MO) in PBS is added to each well of the plate and plates are incubated for an additional 3-6 hours at 37° C., 5% CO2, and 95% humidity. Plates are read on a Synergy2 or equivalent reader (Biotek, Winooski VT) using an excitation of 540 nm and an emission of 600 nm. Data is analyzed using Prism software (GraphPad, San Diego, CA) to calculate IC50 values.

SMILES strings stand for the structures.

T1 sequence (P15056 416-766): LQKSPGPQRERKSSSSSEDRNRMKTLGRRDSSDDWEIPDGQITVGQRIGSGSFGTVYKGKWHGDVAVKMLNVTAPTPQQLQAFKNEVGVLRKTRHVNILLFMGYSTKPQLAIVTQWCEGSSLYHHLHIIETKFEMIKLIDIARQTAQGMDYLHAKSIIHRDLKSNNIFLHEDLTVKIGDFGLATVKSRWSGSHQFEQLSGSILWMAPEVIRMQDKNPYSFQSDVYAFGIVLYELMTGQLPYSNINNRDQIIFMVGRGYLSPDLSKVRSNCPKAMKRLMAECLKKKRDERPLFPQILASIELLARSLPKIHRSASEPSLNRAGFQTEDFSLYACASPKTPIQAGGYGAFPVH

On to `Cc1cc(F)c(NC(=O)N2CCC(C)(C#N)CC2)cc1-c1cc(OCCO)nc(-c2ccnc3[nH]ncc23)c1` [Example 92], for which the results for the IC50 at B-Raf kinase, on C-Raf kinase and at A-Raf kinase were 500 to 1000 nM, 100 to 500 nM and over 1000 nM, respectively.
With `Cc1cc(F)c(NC(=O)NCCC2(C)CC2)cc1-c1cc(OCCO)nc(-c2ccnc3[nH]ncc23)c1` [Example 87], the IC50 at B-Raf kinase was at most 100 nM; on C-Raf kinase, at most 100 nM; at A-Raf kinase, 500 to 1000 nM.
As to `Cc1cc(F)c(NC(=O)NCC[C@@H]2CCO2)cc1-c1cc(OCCO)nc(-c2ccnc3[nH]ncc23)c1` [Example 89], the IC50 on B-Raf kinase, at C-Raf kinase and on A-Raf kinase was over 1000 nM in each case.
As for `CNC(=O)c1cc(-c2cncc(-c3cc(NC(=O)N4CC[C@H](C(F)(F)F)C4)ccc3C)c2)ccn1` [Example 228], the IC50 in the experiment on WM3928 cells fell in the range of 100 to 500 nM.
As for `CNC(=O)c1cc(-c2cc(-c3cc(NC(=O)N4CC[C@H](C(C)C)C4)ccc3C)ccn2)ccn1` [Example 225], the IC50 in the experiment on WM3928 cells is 100 to 500 nM.
On to `CNC(=O)c1cc(-c2cncc(-c3cc(NC(=O)N4CC[C@H](C(F)(F)F)C4)ccc3C)c2)ncn1` [Example 220], for which the IC50 in the experiment with WM3928 cells was in the range of 500 to 1000 nM.
Regarding `Cc1cc(F)c(NC(=O)N[C@@H]2CC[C@H](F)C2)cc1-c1cc(OCCO)nc(-c2ccnc3[nH]ncc23)c1` [Example 88], the IC50 on B-Raf kinase was 500 to 1000 nM; at C-Raf kinase, 100 to 500 nM; on A-Raf kinase, over 1000 nM.
In the case of `CNC(=O)c1cc(-c2cncc(-c3cc(NC(=O)N4CC[C@H](C(C)C)C4)ccc3C)c2)ncn1` [Example 226], the IC50 in the experiment with WM3928 cells is 100 to 500 nM.
On the same count and under the same terms, as for `Cc1ccc(NC(=O)N2CC[C@H](C)C2)cc1-c1cncc(-c2cc(NC(=O)C3CC3)ncn2)c1` [Example 227], the figure is 100 to 500 nM.
`COC(C)(C)CCNC(=O)Nc1cc(-c2cc(OCCO)nc(-c3ccnc4[nH]ccc34)c2)c(C)cc1F` [Example 90]: the IC50 at B-Raf kinase is at most 100 nM; at C-Raf kinase, at most 100 nM; at A-Raf kinase, over 1000 nM.
With `CNC(=O)c1cc(-c2cncc(-c3cc(NC(=O)N4CC[C@H](C(C)C)C4)ccc3C)c2)ccn1` [Example 229], in the experiment on WM3928 cells, the IC50 was in the range of 100 to 500 nM.
As for `COC(=O)Nc1cc(-c2cccc(-c3cc(NC(=O)NCCC(C)(C)OC)c(F)cc3C)c2)ccn1` [Example 85], the figures for the IC50 on B-Raf kinase, at C-Raf kinase and at A-Raf kinase were at most 100 nM, at most 100 nM and over 1000 nM, respectively.
Turning to `COC(C)(C)CCNC(=O)Nc1cc(-c2cc(OCCO)nc(-c3ccnc4[nH]ncc34)c2)c(C)cc1F` [Example 91], the IC50 was at most 100 nM on B-Raf kinase, at most 100 nM on C-Raf kinase and over 1000 nM on A-Raf kinase.
